Test results taken from patent publication US8168651B2, “Protein kinase modulators” (Cylene Pharmaceuticals, Inc., priority 2008, dated 2012).

What was measured:
Experiment in all cases: Standardized radiometric kinase assays, percentage of activity at 0.5 μM;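 also: Read-out is ³³P-labelled substrate protein phosphorylated by each kinase, captured on filters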
[1] = biological target: each individual kinase of the panel (Homo sapiens, UniProt O15264)
[2] = biological target: each individual kinase of the panel (Homo sapiens, UniProt O43353)
[3] = biological target: each individual kinase of the panel (Homo sapiens, UniProt O75582)
[4] = biological target: each individual kinase of the panel (Homo sapiens, UniProt P00519, T315I)
[5] = biological target: each individual kinase of the panel (Homo sapiens, UniProt P05129)
[6] = biological target: each individual kinase of the panel (Homo sapiens, UniProt P05771)
each individual kinase of the panel (Homo sapiens, UniProt P05771), sequence (P05771 2-671 limits assumed): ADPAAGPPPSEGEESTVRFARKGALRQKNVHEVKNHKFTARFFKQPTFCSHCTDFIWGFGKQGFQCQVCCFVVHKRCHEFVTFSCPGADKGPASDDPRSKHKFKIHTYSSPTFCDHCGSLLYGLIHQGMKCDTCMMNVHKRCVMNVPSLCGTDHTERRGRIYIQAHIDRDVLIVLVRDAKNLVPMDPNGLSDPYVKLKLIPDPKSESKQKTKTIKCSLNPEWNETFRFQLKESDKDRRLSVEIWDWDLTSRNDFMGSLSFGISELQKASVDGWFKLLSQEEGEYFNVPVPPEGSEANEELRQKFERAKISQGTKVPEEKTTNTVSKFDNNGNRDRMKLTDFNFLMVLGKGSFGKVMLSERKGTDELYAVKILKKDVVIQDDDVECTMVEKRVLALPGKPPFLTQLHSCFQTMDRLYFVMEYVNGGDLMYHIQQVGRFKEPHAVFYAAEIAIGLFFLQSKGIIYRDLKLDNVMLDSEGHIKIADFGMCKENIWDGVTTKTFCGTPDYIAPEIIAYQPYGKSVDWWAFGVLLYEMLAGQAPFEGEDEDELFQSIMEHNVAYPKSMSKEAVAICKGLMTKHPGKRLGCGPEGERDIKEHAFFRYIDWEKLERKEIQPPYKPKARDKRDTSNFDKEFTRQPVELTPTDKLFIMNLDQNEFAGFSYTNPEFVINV

[7] = biological target: each individual kinase of the panel (Homo sapiens, UniProt P10721, D816V)
[8] = biological target: each individual kinase of the panel (Homo sapiens, UniProt P14616)
each individual kinase of the panel (Homo sapiens, UniProt P14616), sequence (P14616 27-742 limits assumed): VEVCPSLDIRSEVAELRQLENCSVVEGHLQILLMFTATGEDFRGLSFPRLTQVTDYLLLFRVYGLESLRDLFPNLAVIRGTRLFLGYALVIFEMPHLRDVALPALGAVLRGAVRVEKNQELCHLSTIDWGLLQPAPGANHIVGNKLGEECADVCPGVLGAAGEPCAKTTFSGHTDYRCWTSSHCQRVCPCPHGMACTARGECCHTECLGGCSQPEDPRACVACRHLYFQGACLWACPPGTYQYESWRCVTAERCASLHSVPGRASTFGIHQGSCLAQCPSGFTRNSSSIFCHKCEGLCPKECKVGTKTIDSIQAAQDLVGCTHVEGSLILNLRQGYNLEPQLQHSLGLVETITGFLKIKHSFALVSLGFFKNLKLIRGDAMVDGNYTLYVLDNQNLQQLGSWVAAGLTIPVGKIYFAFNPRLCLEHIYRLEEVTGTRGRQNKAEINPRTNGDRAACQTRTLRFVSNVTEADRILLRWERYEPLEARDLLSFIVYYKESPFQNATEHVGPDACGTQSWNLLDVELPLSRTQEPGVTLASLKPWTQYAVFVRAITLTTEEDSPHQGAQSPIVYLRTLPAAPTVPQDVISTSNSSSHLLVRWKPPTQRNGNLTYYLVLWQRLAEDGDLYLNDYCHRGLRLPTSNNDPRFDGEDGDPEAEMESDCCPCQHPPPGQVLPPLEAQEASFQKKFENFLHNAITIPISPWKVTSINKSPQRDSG
each individual kinase of the panel (Homo sapiens, UniProt P14616), sequence (P14616 747-1297 limits assumed): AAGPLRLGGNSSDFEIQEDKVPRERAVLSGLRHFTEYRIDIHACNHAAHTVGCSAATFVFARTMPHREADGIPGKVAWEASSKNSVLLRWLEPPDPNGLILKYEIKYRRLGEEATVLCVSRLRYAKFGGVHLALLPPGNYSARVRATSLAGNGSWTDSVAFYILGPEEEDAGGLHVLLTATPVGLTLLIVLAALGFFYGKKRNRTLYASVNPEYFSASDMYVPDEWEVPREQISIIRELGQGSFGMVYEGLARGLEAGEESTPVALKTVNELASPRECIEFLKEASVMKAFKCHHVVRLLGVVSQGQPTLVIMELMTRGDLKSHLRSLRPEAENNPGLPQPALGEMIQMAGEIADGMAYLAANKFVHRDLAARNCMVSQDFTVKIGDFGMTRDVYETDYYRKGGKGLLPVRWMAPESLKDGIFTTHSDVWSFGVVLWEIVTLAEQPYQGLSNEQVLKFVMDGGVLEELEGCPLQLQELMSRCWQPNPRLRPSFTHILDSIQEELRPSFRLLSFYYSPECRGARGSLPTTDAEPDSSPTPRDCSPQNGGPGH

[9] = biological target: each individual kinase of the panel (Homo sapiens, UniProt P22455)
[10] = biological target: each individual kinase of the panel (Homo sapiens, UniProt P22607)
each individual kinase of the panel (Homo sapiens, UniProt P22607), sequence (P22607 23-806 limits assumed): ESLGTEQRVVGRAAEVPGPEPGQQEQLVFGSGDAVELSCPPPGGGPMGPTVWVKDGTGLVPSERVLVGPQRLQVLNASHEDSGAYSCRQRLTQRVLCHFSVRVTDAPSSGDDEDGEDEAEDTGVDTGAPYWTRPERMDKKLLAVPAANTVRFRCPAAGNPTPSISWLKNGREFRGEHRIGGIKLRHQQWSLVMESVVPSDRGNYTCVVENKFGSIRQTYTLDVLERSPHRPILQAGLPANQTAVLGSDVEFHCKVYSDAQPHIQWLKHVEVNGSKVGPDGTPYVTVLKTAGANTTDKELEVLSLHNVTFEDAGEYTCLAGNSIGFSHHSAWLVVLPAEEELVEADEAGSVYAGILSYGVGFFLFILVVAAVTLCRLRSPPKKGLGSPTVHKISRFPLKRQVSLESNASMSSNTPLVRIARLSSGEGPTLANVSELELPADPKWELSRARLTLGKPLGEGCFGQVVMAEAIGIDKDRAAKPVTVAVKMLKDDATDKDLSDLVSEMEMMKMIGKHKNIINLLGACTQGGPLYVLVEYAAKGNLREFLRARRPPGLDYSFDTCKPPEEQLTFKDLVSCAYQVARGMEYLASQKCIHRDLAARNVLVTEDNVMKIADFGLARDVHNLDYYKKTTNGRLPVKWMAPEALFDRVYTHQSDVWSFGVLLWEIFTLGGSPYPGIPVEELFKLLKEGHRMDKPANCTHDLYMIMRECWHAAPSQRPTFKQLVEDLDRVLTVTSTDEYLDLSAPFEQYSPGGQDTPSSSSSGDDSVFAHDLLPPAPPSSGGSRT

[11] = biological target: each individual kinase of the panel (Homo sapiens, UniProt P29317)
each individual kinase of the panel (Homo sapiens, UniProt P29317), sequence (P29317 24-976 limits assumed): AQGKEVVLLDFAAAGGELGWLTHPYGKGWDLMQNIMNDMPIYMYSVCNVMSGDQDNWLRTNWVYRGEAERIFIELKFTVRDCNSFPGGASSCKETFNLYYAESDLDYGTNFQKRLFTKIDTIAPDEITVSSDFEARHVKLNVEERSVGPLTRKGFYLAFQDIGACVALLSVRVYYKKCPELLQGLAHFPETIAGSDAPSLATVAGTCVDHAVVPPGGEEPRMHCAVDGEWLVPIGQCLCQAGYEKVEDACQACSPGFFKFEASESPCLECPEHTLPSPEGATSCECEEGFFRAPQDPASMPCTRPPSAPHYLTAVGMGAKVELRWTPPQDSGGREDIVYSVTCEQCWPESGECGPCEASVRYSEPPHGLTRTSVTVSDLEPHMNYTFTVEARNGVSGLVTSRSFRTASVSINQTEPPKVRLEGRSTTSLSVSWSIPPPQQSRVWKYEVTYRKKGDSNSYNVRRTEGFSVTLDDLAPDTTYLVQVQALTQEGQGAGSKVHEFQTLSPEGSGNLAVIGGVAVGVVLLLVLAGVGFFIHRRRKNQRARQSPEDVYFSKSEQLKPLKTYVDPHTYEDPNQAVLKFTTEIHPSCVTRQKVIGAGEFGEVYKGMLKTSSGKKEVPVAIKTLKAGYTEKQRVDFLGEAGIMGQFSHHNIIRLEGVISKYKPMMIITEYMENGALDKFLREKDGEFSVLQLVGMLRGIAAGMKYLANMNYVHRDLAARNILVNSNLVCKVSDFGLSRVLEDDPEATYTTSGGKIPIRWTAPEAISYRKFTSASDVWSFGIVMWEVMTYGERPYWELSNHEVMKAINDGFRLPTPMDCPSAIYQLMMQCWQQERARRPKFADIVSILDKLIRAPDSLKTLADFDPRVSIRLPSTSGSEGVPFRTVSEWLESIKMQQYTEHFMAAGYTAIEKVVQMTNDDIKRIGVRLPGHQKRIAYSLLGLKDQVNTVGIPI

[12] = biological target: each individual kinase of the panel (Homo sapiens, UniProt P43250)
[13] = biological target: each individual kinase of the panel (Homo sapiens, UniProt P43405)
[14] = biological target: each individual kinase of the panel (Homo sapiens, UniProt P51617)
[15] = biological target: each individual kinase of the panel (Homo sapiens, UniProt P52333)
[16] = biological target: each individual kinase of the panel (Homo sapiens, UniProt P53779)
[17] = biological target: each individual kinase of the panel (Homo sapiens, UniProt P78362)
[18] = biological target: each individual kinase of the panel (Homo sapiens, UniProt Q09013)
[19] = biological target: each individual kinase of the panel (Homo sapiens, UniProt Q12851)
[20] = biological target: each individual kinase of the panel (Homo sapiens, UniProt Q13237)
each individual kinase of the panel (Homo sapiens, UniProt Q13237), sequence (Q13237 2-762 limits assumed): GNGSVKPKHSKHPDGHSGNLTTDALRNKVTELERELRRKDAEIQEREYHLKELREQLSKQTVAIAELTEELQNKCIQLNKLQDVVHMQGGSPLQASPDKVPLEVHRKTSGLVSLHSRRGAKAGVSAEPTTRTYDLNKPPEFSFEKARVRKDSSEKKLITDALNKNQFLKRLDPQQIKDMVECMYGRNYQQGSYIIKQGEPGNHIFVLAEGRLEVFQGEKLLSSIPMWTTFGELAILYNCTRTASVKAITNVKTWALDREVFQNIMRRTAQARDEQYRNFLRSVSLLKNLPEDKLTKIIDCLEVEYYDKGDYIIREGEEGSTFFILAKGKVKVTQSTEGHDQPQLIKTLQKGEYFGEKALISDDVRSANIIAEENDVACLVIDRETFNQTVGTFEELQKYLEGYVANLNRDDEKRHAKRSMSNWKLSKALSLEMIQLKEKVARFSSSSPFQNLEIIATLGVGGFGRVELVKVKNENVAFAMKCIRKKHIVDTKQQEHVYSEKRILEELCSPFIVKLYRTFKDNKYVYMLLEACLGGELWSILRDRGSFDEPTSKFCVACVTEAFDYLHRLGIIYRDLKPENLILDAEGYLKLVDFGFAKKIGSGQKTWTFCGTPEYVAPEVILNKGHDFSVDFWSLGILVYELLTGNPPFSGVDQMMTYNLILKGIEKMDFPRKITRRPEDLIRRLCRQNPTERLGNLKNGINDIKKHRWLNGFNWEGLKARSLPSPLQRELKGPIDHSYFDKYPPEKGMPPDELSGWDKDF

[21] = biological target: each individual kinase of the panel (Homo sapiens, UniProt Q15759)
[22] = biological target: each individual kinase of the panel (Homo sapiens, UniProt Q16513)
[23] = biological target: each individual kinase of the panel (Homo sapiens, UniProt Q16644)
[24] = biological target: each individual kinase of the panel (Homo sapiens, UniProt Q86UE8)
[25] = biological target: each individual kinase of the panel (Homo sapiens, UniProt Q86Y07)
[26] = biological target: each individual kinase of the panel (Homo sapiens, UniProt Q8IWQ3)
[27] = biological target: each individual kinase of the panel (Homo sapiens, UniProt Q8N568)
[28] = biological target: each individual kinase of the panel (Homo sapiens, UniProt Q96PF2)
[29] = biological target: each individual kinase of the panel (Homo sapiens, UniProt Q9HC98)
[30] = biological target: each individual kinase of the panel (Homo sapiens, UniProt Q9P286)
[31] = biological target: each individual kinase of the panel (Homo sapiens, UniProt Q9UHD2)

- p38-delta percentage of activity [1]: −1%
- RIPK2 percentage of activity [2]: 2%
- MSK1 percentage of activity [3]: 19%
- ABL1(T3151) percentage of activity [4]: −7%
- PRKCG percentage of activity [5]: 0%
- PRKCB1 percentage of activity [6]: 0%
- cKit(D816V) percentage of activity [7]: 2%
- INSRR percentage of activity [8]: −21%
- FGFR4 percentage of activity [9]: 14%
- FGFR3 percentage of activity [10]: −2%
- EPHA2 percentage of activity [11]: 2%
- GRK6 percentage of activity [12]: −2%
- SYK percentage of activity [13]: −9%
- IRAK1 percentage of activity [14]: 4%
- JAK3 percentage of activity [15]: 8%
- JNK3 percentage of activity [16]: −3%
- SRPK2 percentage of activity [17]: 36%
- DMPK percentage of activity [18]: 4%
- GCK percentage of activity [19]: 1%
- PRKG2 percentage of activity [20]: 2%
- p38-beta percentage of activity [21]: 5%
- PRK2 percentage of activity [22]: 3%
- MAPKAPK3 percentage of activity [23]: −8%
- TLK2 percentage of activity [24]: 8%
- VRK2 percentage of activity [25]: −3%
- BRSK2 percentage of activity [26]: 7%
- DCAMKL2 percentage of activity [27]: −3%
- TSSK2 percentage of activity [28]: −9%
- NEK6 percentage of activity [29]: −3%
- PAK5 percentage of activity [30]: −8%
- TBK1 percentage of activity [31]: 70%
Compound: C#Cc1cccc(Nc2nc3cc(C(=O)O)ccc3c3cncnc23)c1 [drawing 1135]
